Measurements published in US20060004088A1, “Furan derivatives for preventing and curing osteoporosis and pharmaceutical compositions containing the same” (OCT INC., priority 2002, published 2006).

System: osteoclast pregenitor cells
Test: Inhibition rates of furan derivatives versus osteoclast formation (TRAP staining)
Format: cell-based, mice
Details: TRAP-positive multinucleated cells, untreated control set as 100%
Procedure: First, bone marrow cells were isolated, as follow. After sacrificing 7-9 week female mice by cervical dislocation, femur and tibia were excised aseptically while removing attached soft tissues. After cutting both ends of long bones, 1 ml of an enzyme solution, containing 0.1% collagenase (Gibco), 0.05% trypsin and 0.5 mM EDTA (Gibco), was injected to the bone marrow cavity at one end using a syringe with a 26-guage needle, and bone marrow was then collected. After shaking the recovered bone marrow for 30 min, bone marrow cells were collected, and cultured in α-minimum essential medium (α-MEM) supplemented with 10% FBS for 24 hrs. Then, non-adherent cells were collected, which are osteoclast pregenitors, aliquotted onto culture plates at a density of 2×10^5 cells per well, and cultured for 8 days in α-MEM supplemented with 20 ng/ml of macrophage-colony stimulating factor (M-CSF, Peprotech, USA) and 30 ng/ml RANKL (Peprotech, USA). During the 8 days of culturing, the cells were treated with the Compound 1. Thereafter, osteoclast formation was investigated by fixing the cultured cells and then carrying out TRAP staining, as described in the following Experimental Example 2.2. In addition, resorption activity of osteoclasts was investigated by measuring the absorption area after removing osteoclasts in cultures in calcium phosphate-coated plates, as described in Experimental Example 2.3, below.
After cell culture, the adherent cells were washed with PBS, and TRAP staining was performed, as follows. After being fixed with citrate-acetate-formaldehyde for 5 min, the cells were incubated for 1 hr in acetate buffer (prewarmed at 37° C., pH 5.0) containing naphthol AS-BI phosphate, fast Garnet GBC and 7 mM tartrate buffer (pH 5.0). TRAP-positive multinucleated cells having 3 or more nuclei were considered as osteoclasts.
Osteoclast pregenitor cells were isolated, and their differentiation to mature osteoclasts was induced, according to the same method as in the Experimental Example 2-1, while treated with each of the furan derivatives of the present invention. According to the same method as in the Experimental Example 2-2, TRAP staining performed, and TRAP-positive multinucleated cells were counted. An inhibition rate of each furan derivative against osteoclast formation was expressed as percentage, wherein the number of stained cells in a control not treated the furan derivative was arbitrarily set as 100% (Tables 14 to 16).

| Structure (SMILES) | Inhibition rate against osteoclast formation, % (0.1 μM) | Inhibition rate against osteoclast formation, % (1 μM) | Inhibition rate against osteoclast formation, % (10 μM) |
| --- | --- | --- | --- |
| COc1ccc(NC(=O)c2ccc(COc3cc(Cl)ccc3Cl)o2)c(OC)c1 [Compound 145] | 0% | 5.98% | 83.3% |
| O=C(Nc1ccccc1)c1ccc(COc2ccc3ccccc3c2)o1 [Compound 137] | 0% | 0% | 38.3% |
| COc1ccc(NC(=O)c2ccc(COc3ccccc3Br)o2)c(OC)c1 [Compound 188] | 0% | 0% | 7.6% |
| CC(=O)c1ccc(NC(=O)c2ccc(COc3cccc4ccccc34)o2)cc1 [Compound 160] | 0% | 0% | 38.96% |
| COC(=O)c1ccc(CNC(C)(C)C)o1 [Compound 91] | 0% | 0% | 9.89% |
| COc1ccccc1NC(=O)c1ccc(COc2ccc(C(C)(C)C)cc2)o1 [Compound 189] | 0% | 0% | 48.99% |
| COc1ccccc1NC(=O)c1ccc(COc2cc(C)ccc2C)o1 [Compound 157] | 4.87% | 10.71% | 97.46% |
| O=Cc1ccc(COC(=O)Cc2ccccc2)o1 [Compound 32] | 0% | 23.3% | 50% |
| CCCc1ccc(OCc2ccc(C(=O)O)o2)cc1 [Compound 100] | 0% | 0% | 10.46% |
| Cc1cc(C)cc(OCc2ccc(C(=O)Nc3ccccc3F)o2)c1 [Compound 177] | 0% | 0% | 11.03% |
| COc1ccc(C)cc1NC(=O)c1ccc(COc2cccc(Cl)c2)o1 [Compound 171] | 0% | 0% | 0.42% |
| CCC(C)NC(=O)c1ccc(COc2ccc(I)cc2)o1 (centres unmarked) [Compound 121] | 0% | 0% | 7.12% |
| O=C(Nc1cccc([N+](=O)[O-])c1)c1ccc(COc2ccc(I)cc2)o1 [Compound 191] | 0% | 0% | 8.06% |
| Cc1ccc(OCc2ccc(C(=O)Nc3ccc(F)cc3)o2)c([N+](=O)[O-])c1 [Compound 147] | 6.11% | 19.4% | 99.72% |
| COC(=O)c1ccccc1NC(=O)c1ccc(COc2ccc(Cl)cc2Cl)o1 [Compound 167] | 0% | 22.42% | 96.47% |
| O=C(Nc1ccc(Br)cc1)c1ccc(COc2ccc(I)cc2)o1 [Compound 146] | 0% | 0% | 10.03% |
| COC(=O)c1ccc(CN(C)C)o1 [Compound 85] | 0% | 0% | 3.75% |

| Structure (SMILES) | Inhibition rate against osteoclast formation, % (0.1 μM) | Inhibition rate against osteoclast formation, % (1 μM) | Inhibition rate against osteoclast formation, % (10 μM) |
| --- | --- | --- | --- |
| O=C(O)c1ccc(COc2ccccc2Br)o1 [Compound 108] | 0% | 0% | 14.72% |
| Cc1cccc(C)c1NC(=O)c1ccc(COc2ccc(Cl)cc2)o1 [Compound 179] | 0% | 0% | 34.81% |
| C=CCc1ccc(OCc2ccc(C(=O)OC)o2)c(OC)c1 [Compound 59] | 0% | 0% | 15.95% |
| Cc1ccc(OCc2ccc(C(=O)Nc3ccc(F)c(F)c3)o2)cc1C [Compound 186] | 0% | 0% | 21.09% |
| NC(=O)c1ccc(NC(=O)c2ccc(COc3cc(Cl)ccc3Cl)o2)cc1 [Compound 148] | 0% | 3.05% | 47.55% |
| O=C(O)c1ccc(COc2ccc(Br)cc2)o1 [Compound 103] | 0% | 0% | 2.77% |
| CC(C)NC(=O)c1ccc(CNc2cc(Cl)ccc2Cl)o1 [Compound 130] | 0% | 0% | 7.84% |
| COC(=O)c1ccc(COc2ccc(I)cc2)o1 [Compound 79] | 0% | 0% | 34.65% |
| O=C(Nc1cc(F)ccc1F)c1ccc(COc2ccccc2Cl)o1 [Compound 161] | 0% | 0% | 11.33% |
| CC(C)(C)NC(=O)c1ccc(COCC(F)(F)F)o1 [Compound 127] | 0% | 0% | 13.82% |
| O=C(O)c1ccc(COc2cccc3ccccc23)o1 [Compound 117] | 0% | 0% | 5.86% |
| O=C(Nc1ccc(I)cc1)c1ccc(COc2ccccc2Br)o1 [Compound 190] | 0% | 0% | 5.12% |
| O=C(Oc1ccccc1)c1ccc(COc2ccccc2Cl)o1 [Compound 98] | 0% | 0% | 9.89% |
| COc1ccccc1NC(=O)c1ccc(COc2ccccc2OC)o1 [Compound 166] | 0% | 0% | 1.08% |
| CCCc1ccc(OCc2ccc(C(=O)Nc3cc(Cl)ccc3Cl)o2)cc1 [Compound 170] | 0% | 0% | 16.31% |
| COC(=O)c1ccc(COc2cc(C)ccc2C(C)C)o1 [Compound 68] | 0% | 0% | – |
| COc1ccccc1OCc1ccc(C(=O)Oc2ccc(Cl)cc2)o1 [Compound 97] | 0% | 0% | 12.75% |
